Legend:
Format in all cases: in vivo
Matricaria inodora [1] = test: Post-emergence herbicidal action against MATIN; details: visual assessment about 3 weeks after treatment
Method in brief: (§1)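 Weeds in sandy loam soil received a post-emergence spray at the one-leaf stage. Compounds were applied as WP or EC in water, 600 to 800 l/ha, with 0.2% wetting agent. Activity in % was judged visually after roughly 3 weeks against untreated plants.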

Pharbitis purpurea [2] = test: Post-emergence herbicidal action against PHBPU; details: visual assessment about 3 weeks after treatment
Method in brief: as §1

Echinochloa crus-galli [3] = test: Pre-emergence herbicidal action against ECHCG; details: visual score after 3 weeks vs untreated controls
Method in brief: (§2)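 Visual rating at 3 weeks vs untreated pots; 0–100% scale, 100% = plants died. Treatment: aqueous WP/EC spray onto covering soil, 600–800 l/ha, 0.2% wetter, seeds in sandy loam.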

Amaranthus retroflexus [4] = test: Post-emergence herbicidal action against AMARE; details: visual assessment about 3 weeks after treatment
Method in brief: as §1

Avena fatua [5] = test: Pre-emergence herbicidal action against AVEFA; details: visual score after 3 weeks vs untreated controls
Method in brief: as §2

Viola tricolor [6] = test: Post-emergence herbicidal action against VIOTR
Method in brief: as §1

Pharbitis purpurea [7] = test: Pre-emergence herbicidal action against PHBPU; details: visual score after 3 weeks vs untreated controls
From the text: (§3) Seeds of monocotyledonous and dicotyledonous weed plants and crop plants are laid out in sandy loam soil in wood-fiber pots and covered with soil. The compounds of the invention, formulated in the form of wettable powders (WP) or as emulsion concentrates (EC), are then applied to the surface of the covering soil in the form of an aqueous suspension or emulsion at a water application rate equivalent to 600 to 800 l/ha, with addition of 0.2% wetting agent. After the treatment, the pots are placed in a greenhouse and kept under good growth conditions for the trial plants. The damage to the test plants is scored visually after a test period of 3 weeks by comparison with untreated controls (herbicidal activity in percent (%): 100% activity=the plants have died, 0% activity=like control plants). […] The tables below illustrate, in an illustrative manner, the post-emergence herbicidal action of the compounds of the invention, the herbicidal activity being stated in percent.

Veronica persica [8] = test: Post-emergence herbicidal action against VERPE; details: visual assessment about 3 weeks after treatment
Method in brief: as §1

Setaria viridis [9] = test: Pre-emergence herbicidal action against SETVI
Method in brief: as §2

Alopecurus myosuroides [10] = test: Post-emergence herbicidal action against ALOMY
Method in brief: as §1

Avena fatua [11] = test: Post-emergence herbicidal action against AVEFA; details: visual assessment about 3 weeks after treatment
Method in brief: as §1

Abutilon theophrasti [12] = test: Post-emergence herbicidal action against ABUTH
Method in brief: as §1

Lolium rigidum = test: Pre-emergence herbicidal action against LOLRI
Method in brief: as §2

Veronica persica [13] = test: Pre-emergence herbicidal action against VERPE
Method in brief: as §2

Digitaria sanguinalis = test: Post-emergence herbicidal action against DIGSA
Method in brief: as §1

Abutilon theophrasti [14] = test: Pre-emergence herbicidal action against ABUTH; details: visual score after 3 weeks vs untreated controls
Method in brief: as §2

Viola tricolor [15] = test: Pre-emergence herbicidal action against VIOTR
Method in brief: as §2

Setaria viridis [16] = test: Post-emergence herbicidal action against SETVI; details: visual assessment about 3 weeks after treatment
Method in brief: as §1

Alopecurus myosuroides [17] = test: Pre-emergence herbicidal action against ALOMY; details: visual score after 3 weeks vs untreated controls
Method in brief: as §2

Matricaria inodora [18] = test: Pre-emergence herbicidal action against MATIN; details: visual score after 3 weeks vs untreated controls
Method in brief: as §2

Polygonum convolvulus = test: Pre-emergence herbicidal action against POLCO; details: 80 g/ha
Method in brief: as §2

Amaranthus retroflexus [19] = test: Pre-emergence herbicidal action against AMARE; details: visual score after 3 weeks vs untreated controls
Method in brief: as §2

Stellaria media [20] = test: Post-emergence herbicidal action against STEME; details: visual assessment about 3 weeks after treatment
Procedure: Seeds of monocotyledonous and dicotyledonous weed and crop plants are laid out in sandy loam soil in wood-fiber pots, covered with soil and cultivated in a greenhouse under good growth conditions. 2 to 3 weeks after sowing, the test plants are treated at the one-leaf stage. The compounds of the invention, formulated in the form of wettable powders (WP) or as emulsion concentrates (EC), are then sprayed onto the green parts of the plants in the form of an aqueous suspension or emulsion at a water application rate equivalent to 600 to 800 l/ha, with addition of 0.2% wetting agent. After the test plants have been left to stand in the greenhouse under optimal growth conditions for about 3 weeks, the action of the preparations is assessed visually in comparison to untreated controls (herbicidal action in percent (%): 100% activity=the plants have died, 0% activity=like control plants). […] The tables below illustrate, in an illustrative manner, the post-emergence herbicidal action of the compounds of the invention, the herbicidal activity being stated in percent.

Stellaria media [21] = test: Pre-emergence herbicidal action against STEME
From the text: as §3

Cyperus esculentus = test: Pre-emergence herbicidal action against CYPES; details: visual score after 3 weeks vs untreated controls
From the text: as §3

Echinochloa crus-galli [22] = test: Post-emergence herbicidal action against ECHCG; details: visual assessment about 3 weeks after treatment
Method in brief: as §1

CCN(CC)C(=O)c1c(C(F)F)ccc(C(=O)Nc2nnnn2C)c1Cl [Example 1-166]
Post-emergence action against MATIN in % (Matricaria inodora [1]; 5 g/ha): 80%
Post-emergence action against MATIN in % (Matricaria inodora [1]; 20 g/ha): 90%
Post-emergence action against PHBPU in % (Pharbitis purpurea [2]; 5 g/ha): 90%
Post-emergence action against PHBPU in % (Pharbitis purpurea [2]; 20 g/ha): 90%
Pre-emergence action against ECHCG (Echinochloa crus-galli [3]; 80 g/ha): 100%
Post-emergence action against AMARE in % (Amaranthus retroflexus [4]; 5 g/ha): 100%
Post-emergence action against AMARE in % (Amaranthus retroflexus [4]; 20 g/ha): 100%
Pre-emergence action against AVEFA (Avena fatua [5]; 80 g/ha): 90%
Post-emergence action against VIOTR in % (Viola tricolor [6]; 20 g/ha): 80%
Pre-emergence action against PHBPU (Pharbitis purpurea [7]; 80 g/ha): 90%
Post-emergence action against VERPE in % (Veronica persica [8]; 20 g/ha): 80%
Pre-emergence action against SETVI (Setaria viridis [9]; 80 g/ha): 100%
Post-emergence action against ALOMY (Alopecurus myosuroides [10]; 5 g/ha): 80%
Post-emergence action against ALOMY (Alopecurus myosuroides [10]; 20 g/ha): 80%
Post-emergence action against AVEFA in % (Avena fatua [11]; 20 g/ha): 80%
Post-emergence action against ABUTH (Abutilon theophrasti [12]; 5 g/ha): 80%
Post-emergence action against ABUTH (Abutilon theophrasti [12]; 20 g/ha): 90%
Pre-emergence action against LOLRI (Lolium rigidum; 80 g/ha): 80%
Pre-emergence action against VERPE (Veronica persica [13]; 80 g/ha): 100%
Post-emergence action against DIGSA in % (Digitaria sanguinalis; 5 g/ha): 90%
Post-emergence action against DIGSA in % (Digitaria sanguinalis; 20 g/ha): 90%
Pre-emergence action against ABUTH (Abutilon theophrasti [14]; 20 g/ha): 100%
Pre-emergence action against ABUTH (Abutilon theophrasti [14]; 80 g/ha): 100%
Pre-emergence action against VIOTR (Viola tricolor [15]; 80 g/ha): 100%
Post-emergence action against SETVI in % (Setaria viridis [16]; 5 g/ha): 80%
Post-emergence action against SETVI in % (Setaria viridis [16]; 20 g/ha): 100%
Pre-emergence action against ALOMY (Alopecurus myosuroides [17]; 80 g/ha): 90%
Pre-emergence action against MATIN (Matricaria inodora [18]; 20 g/ha): 90%
Pre-emergence action against MATIN (Matricaria inodora [18]; 80 g/ha): 90%
Pre-emergence action against POLCO (Polygonum convolvulus): 80%
Pre-emergence action against AMARE (Amaranthus retroflexus [19]; 20 g/ha): 100%
Pre-emergence action against AMARE (Amaranthus retroflexus [19]; 80 g/ha): 100%

CCCn1nnnc1NC(=O)c1ccc(C(F)(F)F)c(C(=O)N(C)CC2CC2)c1Cl [Example 3-126]
Post-emergence action against MATIN in % (Matricaria inodora [1]; 5 g/ha): 80%
Post-emergence action against MATIN in % (Matricaria inodora [1]; 20 g/ha): 90%
Post-emergence action against MATIN in % (Matricaria inodora [1]; 80 g/ha): 100%
Post-emergence action against STEME in % (Stellaria media [20]; 5 g/ha): 100%
Post-emergence action against STEME in % (Stellaria media [20]; 20 g/ha): 100%
Post-emergence action against STEME in % (Stellaria media [20]; 80 g/ha): 100%
Post-emergence action against PHBPU in % (Pharbitis purpurea [2]; 20 g/ha): 90%
Post-emergence action against PHBPU in % (Pharbitis purpurea [2]; 80 g/ha): 100%
Pre-emergence action against ECHCG (Echinochloa crus-galli [3]; 320 g/ha): 80%
Pre-emergence action against STEME (Stellaria media [21]; 20 g/ha): 80%
Pre-emergence action against STEME (Stellaria media [21]; 80 g/ha): 80%
Pre-emergence action against STEME (Stellaria media [21]; 320 g/ha): 100%
Post-emergence action against AMARE in % (Amaranthus retroflexus [4]; 5 g/ha): 100%
Post-emergence action against AMARE in % (Amaranthus retroflexus [4]; 20 g/ha): 100%
Post-emergence action against AMARE in % (Amaranthus retroflexus [4]; 80 g/ha): 100%
Pre-emergence action against AVEFA (Avena fatua [5]; 320 g/ha): 100%
Post-emergence action against VIOTR in % (Viola tricolor [6]; 5 g/ha): 80%
Post-emergence action against VIOTR in % (Viola tricolor [6]; 20 g/ha): 90%
Post-emergence action against VIOTR in % (Viola tricolor [6]; 80 g/ha): 100%
Pre-emergence action against PHBPU (Pharbitis purpurea [7]; 320 g/ha): 80%
Post-emergence action against VERPE in % (Veronica persica [8]; 80 g/ha): 90%
Pre-emergence action against SETVI (Setaria viridis [9]; 80 g/ha): 80%
Pre-emergence action against SETVI (Setaria viridis [9]; 320 g/ha): 100%
Post-emergence action against ALOMY (Alopecurus myosuroides [10]; 80 g/ha): 80%
Pre-emergence action against CYPES (Cyperus esculentus; 80 g/ha): 100%
Pre-emergence action against CYPES (Cyperus esculentus; 320 g/ha): 100%
Post-emergence action against AVEFA in % (Avena fatua [11]; 20 g/ha): 90%
Post-emergence action against AVEFA in % (Avena fatua [11]; 80 g/ha): 100%
Post-emergence action against ABUTH (Abutilon theophrasti [12]; 5 g/ha): 100%
Post-emergence action against ABUTH (Abutilon theophrasti [12]; 20 g/ha): 100%
Post-emergence action against ABUTH (Abutilon theophrasti [12]; 80 g/ha): 100%
Pre-emergence action against LOLRI (Lolium rigidum; 320 g/ha): 80%
Pre-emergence action against VERPE (Veronica persica [13]; 320 g/ha): 90%
Pre-emergence action against ABUTH (Abutilon theophrasti [14]; 20 g/ha): 100%
Pre-emergence action against ABUTH (Abutilon theophrasti [14]; 80 g/ha): 100%
Pre-emergence action against ABUTH (Abutilon theophrasti [14]; Dosage column 320 g/ha (heading prints 3200 g/ha)): 100%
Pre-emergence action against VIOTR (Viola tricolor [15]; 80 g/ha): 90%
Pre-emergence action against VIOTR (Viola tricolor [15]; 320 g/ha): 100%
Post-emergence action against SETVI in % (Setaria viridis [16]; 20 g/ha): 80%
Post-emergence action against SETVI in % (Setaria viridis [16]; 80 g/ha): 100%
Pre-emergence action against ALOMY (Alopecurus myosuroides [17]; 320 g/ha): 90%
Pre-emergence action against MATIN (Matricaria inodora [18]; 80 g/ha): 90%
Pre-emergence action against MATIN (Matricaria inodora [18]; 320 g/ha): 100%
Post-emergence action against ECHCG in % (Echinochloa crus-galli [22]; 5 g/ha): 90%
Post-emergence action against ECHCG in % (Echinochloa crus-galli [22]; 20 g/ha): 100%
Post-emergence action against ECHCG in % (Echinochloa crus-galli [22]; 80 g/ha): 100%
Pre-emergence action against AMARE (Amaranthus retroflexus [19]; 20 g/ha): 90%
Pre-emergence action against AMARE (Amaranthus retroflexus [19]; 80 g/ha): 100%
Pre-emergence action against AMARE (Amaranthus retroflexus [19]; 320 g/ha): 100%

Reference: patent US12599136B2, “Substituted isophthalic acid diamides and their use as herbicides” (Bayer Aktiengesellschaft, priority 2020, dated 2026)
